In patent publication US20100113540A1, “Azole and Thiazole Derivatives and Their Use” (ARGENTA DISCOVERY LIMITED, priority 2005, published 2010):
pKi: −log10 of the molar value.

Target: T1, M3 muscarinic receptor (Homo sapiens, UniProt P20309)
T1 construct: purchased
Experiment: Muscarinic receptor radioligand binding assay ([3H]-NMS), M3
Conditions: cell membranes expressing human M3 receptor
Method: (§1) The inhibitory effects of compounds of the present invention at the M3 muscarinic receptor and (in the case of Example 77) the β2 adrenergic receptor, were determined by the following binding assays:
Radioligand binding studies utilising [^3H]-N-methyl scopolamine ([^3H]-NMS) and commercially available cell membranes expressing the human muscarinic receptors (M2 and M3) were used to assess the affinity of muscarinic antagonists for M2 and M3 receptors. Membranes in TRIS buffer were incubated in 96-well plates with [^3H]-NMS and M3 antagonist at various concentrations for 3 hours. Membranes and bound radioligand were then harvested by filtration and allowed to dry overnight. Scintillation fluid was then added and the bound radioligand counted using a Can berra Packard Topcount scintillation counter

T1 sequence (P20309 whole entry): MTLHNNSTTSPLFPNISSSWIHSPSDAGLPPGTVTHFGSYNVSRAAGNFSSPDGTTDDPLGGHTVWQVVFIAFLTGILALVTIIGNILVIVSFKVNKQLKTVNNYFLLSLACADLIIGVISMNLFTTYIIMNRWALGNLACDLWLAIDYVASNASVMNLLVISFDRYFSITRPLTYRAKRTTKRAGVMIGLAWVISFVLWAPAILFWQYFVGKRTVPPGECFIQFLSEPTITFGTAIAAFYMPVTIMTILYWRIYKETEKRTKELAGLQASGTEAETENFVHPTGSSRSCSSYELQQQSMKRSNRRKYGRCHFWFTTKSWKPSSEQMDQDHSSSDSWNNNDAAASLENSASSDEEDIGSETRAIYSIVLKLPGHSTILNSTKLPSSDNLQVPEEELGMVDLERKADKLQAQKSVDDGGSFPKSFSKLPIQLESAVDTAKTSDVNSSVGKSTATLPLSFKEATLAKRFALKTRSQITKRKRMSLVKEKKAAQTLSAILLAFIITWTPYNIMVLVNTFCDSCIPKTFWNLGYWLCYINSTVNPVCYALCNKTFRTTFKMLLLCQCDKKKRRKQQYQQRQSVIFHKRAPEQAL

Row | Compound | pKi
1 | CN(C)Cc1cnc(C(c2ccccc2)c2ccccc2)o1 [Example 73, (2-Benzhydryl-oxazol-5-ylmethyl)-dimethyl-amine] | < 8.00
2 | C[N+](C)(CCCOc1ccccc1)Cc1cnc(C(c2ccccc2)c2ccccc2)o1 [Example 74, (2-Benzhydryl-oxazol-5-ylmeth-dimethyl-(3-phenoxy-propyl)-ammonium bromide] | < 8.00
3 | COC(c1ccccc1)(c1ccccc1)c1ncc(C[N+](C)(C)CCCOc2ccccc2)o1 [Example 76, [2-(Methoxy-diphenyl-methyl)-oxazol-5-ylmethyl]-dimethyl-(3-phenoxy-propyl)-ammonium bromide] | < 8.00

The next lines start with the values.

Row | pKi | Compound
4 | < 8.00 | CN(CCCCCCCCCNC[C@H](O)c1ccc(O)c2[nH]c(=O)ccc12)Cc1cnc(C(O)(c2ccccc2)C2CCCCC2)o1 (stereo partly drawn) [Example 77, 5-[(R)-2-(9-{[2-(Cyclohexyl-hydroxy-phenyl-methyl)-oxazol-5-ylmethyl]-methyl-amino}-nonylamino)-1-hydroxy-ethyl]-8-hydroxy-1H-quinolin-2-one]
5 | > 9.00 | C[N+](C)(CCCOc1ccccc1)Cc1cnc(C(O)(c2ccccc2)c2ccccc2)s1 [Example 79, [2-(Hydroxydiphenylmethyl)thiazol-5-ylmethyl]dimethyl-(3-phenoxypropyl)ammonium bromide]
6 | > 9.00 | C[N+](C)(CCCOCc1ccccc1)Cc1cnc([C@](O)(c2ccccc2)C2CCCCC2)o1 [Example 80, (3-Benzyloxy-propyl)-[2-((R)-cyclohexyl-hydroxy-phenyl-methyl)-oxazol-5-ylmethyl]-dimethyl-ammonium bromide]
7 | > 9.00 | C[N+](C)(CCOCc1ccc(Cl)cc1)Cc1cnc([C@](O)(c2ccccc2)C2CCCCC2)o1 [Example 81, [2-(4-Chloro-benzyloxy)-ethyl]-[2-((R)-cyclohexyl-hydroxy-phenyl-methyl)-oxazol-5-ylmethyl]-dimethyl-ammonium methanesulfonate]

Target: T2, human β2 adrenergic receptor (Homo sapiens, UniProt P07550)
T2 construct: purchased
Experiment: β-Adrenergic receptor radioligand binding assay ([125I]-Iodocyanopindolol)
Conditions: cell membranes expressing human β2 adrenergic receptor
Method: as §1
Radioligand binding studies utilising [^125I]-Iodocyanopindolol and commercially available cell membranes expressing the human β2 adrenergic receptor were used to assess the affinity of antagonists for β2-adrenergic receptor. Membranes and SPA-beads were incubated with [^125I-Iodocyanopindolol and β2 antagonist at various concentrations for 3 hours at room temperature in TRIS buffer. The assay was performed in 96-well plates which were read using the Wallac Microbeta counter.

T2 sequence (P07550 whole entry): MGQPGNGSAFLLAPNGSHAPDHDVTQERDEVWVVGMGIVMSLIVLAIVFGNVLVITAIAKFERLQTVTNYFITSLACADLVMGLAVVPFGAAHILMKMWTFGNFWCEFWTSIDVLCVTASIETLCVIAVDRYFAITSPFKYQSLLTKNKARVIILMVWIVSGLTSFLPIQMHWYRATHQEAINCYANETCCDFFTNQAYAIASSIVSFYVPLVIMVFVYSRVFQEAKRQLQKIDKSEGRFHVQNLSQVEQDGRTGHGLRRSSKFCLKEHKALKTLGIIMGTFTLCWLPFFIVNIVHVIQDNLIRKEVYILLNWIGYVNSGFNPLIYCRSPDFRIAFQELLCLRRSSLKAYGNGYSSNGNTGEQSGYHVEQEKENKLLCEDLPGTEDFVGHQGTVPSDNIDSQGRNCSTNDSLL

Row | pKi | Compound
8 | > 7.00 | CN(CCCCCCCCCNC[C@H](O)c1ccc(O)c2[nH]c(=O)ccc12)Cc1cnc(C(O)(c2ccccc2)C2CCCCC2)o1 (stereo partly drawn) [Example 77, 5-[(R)-2-(9-{[2-(Cyclohexyl-hydroxy-phenyl-methyl)-oxazol-5-ylmethyl]-methyl-amino}-nonylamino)-1-hydroxy-ethyl]-8-hydroxy-1H-quinolin-2-one]
